Read-outs that look alike come from different tables or passages of the source. Where a SMILES comes first, the peptide text is derived from it. [ ]: non-standard residue; d: D form. pY = N[C@@H](Cc1ccc(OP(=O)(O)O)cc1)C(=O)O; pT = C[C@@H](OP(=O)(O)O)[C@H](N)C(=O)O
Columns and labels:
[1] = target: T1, DUSP5pdWT (Homo sapiens, UniProt Q16690); experiment: Steady state inhibition of pNPP hydrolysis by tripeptides; type: biochemical; parameters: The Dusp5 phosphatase domain gene, both wild type (WT; DUSP5pdWT; used for kinetic studies); inferred from the Nickel NTA purification), with additional N-terminal amino acids (N); made in house; settings: for Ki: peptide as inhibitor of pNPP hydrolysis
T1 sequence (Q16690 178-319 limits assumed): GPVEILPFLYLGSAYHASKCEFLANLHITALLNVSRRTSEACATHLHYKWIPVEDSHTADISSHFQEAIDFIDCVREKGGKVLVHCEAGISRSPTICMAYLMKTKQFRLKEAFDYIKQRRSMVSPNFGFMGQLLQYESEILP

[2] = target: T1, DUSP5pdWT; experiment: Steady state inhibition of pNPP hydrolysis by vanadate and phosphate; settings: for inhibition pattern / Ki (Kis): pNPP substrate; for Ki (Kis): Tris pH 7.5, 0.045 mM DTT, global kinetics analysis
Procedure: All assays were carried out using pNPP as a substrate in the presence of DTT using a microplate reader and a total volume of 100 μL. Each assay contained an enzyme concentration of approximately 0.072 mg/mL (appropriately 3.13 μM DUSP5pdWT) which was left in a stock solution at about 1 h at 4°C before use. Each assay consisted of a reaction mixture in 100 mM tris-hydrochloride buffer containing 100 mM NaCl and 5.0 mM magnesium chloride (MgCl2) at pH 7.5. […] The kinetic parameters were measured in the presence of 0.045 mM DTT in the assay solution and the assay was started with the addition of pNPP.
For phosphate inhibition studies, the phosphate inhibitor concentrations used were 0.5; 1; 2; 5; 10 mM. […] The kinetic runs were repeated three times and the data were initial processed using excel and the global kinetics analysis was performed using GraphPad Prism 10.1.2. The errors provided in the analysis were calculated by the program.

[3] = target: T2, DUSPpdWT (Homo sapiens, UniProt Q16690); experiment: 31P NMR monitoring of tripeptide hydrolysis; type: biochemical
T2 construct: The Dusp5 phosphatase domain gene, both wild type (WT; DUSP5pdWT; used for kinetic studies); inferred from the Nickel NTA purification), with additional N-terminal amino acids (N); made in house
T2 sequence (Q16690 178-319 limits assumed): T1 sequence (Q16690 178-319 limits assumed)
Procedure: Hydrolysis of the pThr-Glu-pTyr peptide was monitored using ^31P 1D NMR and a Varian 500 MHz spectrometer equipped with a broad band probe. 1 mM of peptide was incubated with 100 μM of DUSPpdWT protein for 3 min, and spectra were collected at 25°C. See Figure 2 and, for a time course, Supplementary Figure S3.

[4] = target: Bovine Low Molecular Weight Phosphotyrosyl Phosphatase; parameters: method as in Zhang et al. (1997); settings: Bovine heart, substrate PNPP, Sodium acetate, ref Zhang et al. (1997), cited from earlier work
[5] = target: Acid phosphatases (Bovine liver); parameters: method as in Lawrence and Van Etten (1981); settings: pH 5.5, substrate PNPP, Sodium acetate, ref Lawrence and Van Etten (1981); cited from earlier work
[6] = target: PTP1B; settings: cited from earlier work
[7] = target: Human prostatic acid phosphatase; settings: pH 5.0; substrate PNPP; Sodium acetate; ref Zhou et al. (1993); cited from earlier work
[8] = target: Phosphotyrosyl protein phosphatases; settings: pH 5.0; substrate PNPP; Sodium acetate; ref Zhou et al. (1993); cited from earlier work
[9] = target: SHP-1 (domain containing protein tyrosine phosphatase-1); settings: pH 7.5; substrate PNPP; Tris; ref Heo et al. (2002); cited from earlier work
[10] = target: PTPase; settings: substrate PNPP, ref Deng et al. (2002), cited from earlier work
[11] = target: Bacteriophage λ protein phosphatase; settings: pH 7.8; substrate PNPP; Tris; ref Reiter et al. (2001); cited from earlier work
[12] = Ki, global competitive model, Lineweaver-Burk fit (equation S2)
[13] = Ki, global competitive model, Michaelis-Menten fit (Eq. 2)

## CC(=O)N[C@H](C(=O)N[C@@H](CCC(=O)O)C(=O)N[C@@H](Cc1ccc(OP(=O)(O)O)cc1)C(N)=O)[C@@H](C)O [T-E-pY] (Ac-Thr-Glu-[pY]-NH2)
[1]; [12]
  Ki: 4800 µM
[1]; [13]
  Ki: 4930 µM

## O=[N+]([O-])c1ccc(OP(=O)(O)O)cc1 [pNPP, p-nitrophenol phosphate]
[2]; pH 7.5
  Km: 8.02 mM

## CC(=O)N[C@H](C(=O)N[C@@H](CCC(=O)O)C(=O)N[C@@H](Cc1ccc(O)cc1)C(N)=O)[C@@H](C)OP(=O)(O)O [pT-E-Y] (Ac-[pT]-Glu-Tyr-NH2)
[1]; global competitive model, Lineweaver-Burk fit (equation S2), read-out: Ki
  Ki: 21900 µM
[1]; global competitive model, Michaelis-Menten fit (Eq. 2), read-out: Ki
  Ki: 15800 µM

## CC(=O)N[C@H](C(=O)N[C@@H](CCC(=O)O)C(=O)N[C@@H](Cc1ccc(OP(=O)(O)O)cc1)C(N)=O)[C@@H](C)OP(=O)(O)O [pT-E-pY, Ac-pThr-Glu-pTyr-NH2] (Ac-[pT]-Glu-[pY]-NH2)
[3]; 1 mM peptide, 100 μM DUSP5pdWT, 3 min, 25°C
  conversion to orthophosphate (both phosphates cleaved): 100%
[3]; 10-fold lower enzyme concentration, even after prolonged incubation
  pT and pY peptides remaining (each): about 25%
[3]; 10-fold lower enzyme concentration, first timepoint after 3 min incubation
  conversion: about 50%
[1]; [12]
  Ki: 1220 µM
[1]; [13]
  Ki: 1670 µM
[1]; pNPP substrate, peptide as inhibitor, global competitive model, Michaelis-Menten fit (Eq. 2)
  kcat: 2.03 ± 0.07 × 10^−2 s^−1
[1]; relative to the pY monophosphorylated peptide
  fold more potent binder: roughly 3 x

## O=P(O)(O)O [phosphate, sodium phosphate]
[4]; pH 5.0
  Ki: 2200 ± 0.4 µM
[4]; pH 7.5
  Ki: 6200 µM
[5]
  Ki: 3000 µM
[6]; pH 7.0, substrate PNPP, 3,3-Dimethylglutarate, ref Zhang, Y.L. and Zhang, Z.Y. (1998)
  Ki: 17000 µM
[2]
  inhibition pattern: competitive inhibitors
[2]; listed as Phosphate
  Ki (Kis): 17300 µM
  inhibition pattern: competitive inhibition pattern
[2]; listed as sodium phosphate
  Ki (Kis): 17320 µM

## sodium vanadate
[4]; pH 5.0
  Ki: 5.4 µM
[4]; pH 7.5
  Ki: 1 µM
[5]
  Ki: 2000 µM
[6]; pH 5.5, substrate PNPP, Tris, ref Heo et al. (2002)
  Ki: 410 µM
[6]; pH 7.3, substrate FDP, HEPES, ref Huyer et al. (1997)
  Ki: 0.38 µM
[6]; pH 7.5, substrate PNPP, Tris, ref Heo et al. (2002)
  Ki: 5.6 µM
[7]
  Ki: 36 µM
[8]
  Ki: 24 µM
[9]
  Ki: 9.3 µM
[10]; pH 5.5, Acetate
  Ki: 1.1 µM
[10]; pH 7.5, Tris
  Ki: 1.2 µM
[11]
  Ki: 0.7 µM
[2]
  inhibition pattern: competitive inhibitors

Reference: publication PMC11694514, “Structural and kinetic characterization of DUSP5 with a Di-phosphorylated tripeptide substrate from the ERK activation loop” (Frontiers in chemical biology, 2024)
